The source made the active and inactive calls. No cut-off for these calls is given here.
Key:
[1] = Ratio of compound ED50 to paclitaxel ED50 for tubulin assembly
Endothelial cell = experiment: Binding affinity to Pgp in bovine brain microvessel endothelial cells assessed as increase in rhodamine uptake at 10 uM relative to control; format: cell-based; conditions: Bos taurus
MCF7 [2] = experiment: Ratio of compound ED50 to paclitaxel ED50 for human MCF7 cells; format: functional
NCI/ADR-RES [3] = experiment: Ratio of compound ED50 to paclitaxel ED50 for human NCI/ADR-RES cells; format: functional
MCF7 [4] = experiment: Cytotoxicity against human MCF7 cells; format: functional; conditions: read-out: ED50 (the source's name)
NCI/ADR-RES [5] = experiment: Cytotoxicity against human NCI/ADR-RES cells; format: functional; conditions: read-out: ED50 (the source's name)

Ratio ED50 [1]	SMILES	Activity (Endothelial cell)	Ratio ED50 (MCF7 [2])	Ratio ED50 (NCI/ADR-RES [3])	EC50 (MCF7 [4]) [nM]	EC50 (NCI/ADR-RES [5]) [nM]
0.6	CC(=O)O[C@H]1C(=O)[C@]2(C)[C@@H](OC(=O)CCC(N)=O)C[C@H]3OC[C@@]3(OC(C)=O)[C@H]2[C@H](OC(=O)c2ccccc2)[C@]2(O)C[C@H](OC(=O)[C@H](O)[C@@H](NC(=O)c3ccccc3)c3ccccc3)C(C)=C1C2(C)C	Active	–	–	–	–
0.6	CC(=O)O[C@H]1C(=O)[C@]2(C)[C@@H](OC(=O)CCCC(N)=O)C[C@H]3OC[C@@]3(OC(C)=O)[C@H]2[C@H](OC(=O)c2ccccc2)[C@]2(O)C[C@H](OC(=O)[C@H](O)[C@@H](NC(=O)c3ccccc3)c3ccccc3)C(C)=C1C2(C)C	Active	–	–	–	–
1.8	CC(=O)O[C@@]12CO[C@@H]1C[C@H](O)[C@@]1(C)C(=O)[C@H](OC(=O)CCCC(N)=O)C3=C(C)[C@@H](OC(=O)[C@H](O)[C@@H](NC(=O)c4ccccc4)c4ccccc4)C[C@@](O)([C@@H](OC(=O)c4ccccc4)[C@H]21)C3(C)C	Active	–	–	–	–
1	COC(=O)CCC(=O)O[C@H]1C(=O)[C@@]2(C)[C@H]([C@H](OC(=O)c3ccccc3)[C@]3(O)C[C@H](OC(=O)[C@H](O)[C@@H](NC(=O)c4ccccc4)c4ccccc4)C(C)=C1C3(C)C)[C@]1(OC(C)=O)CO[C@@H]1C[C@@H]2O	–	2.5	0.4	–	–
1	CC(=O)O[C@H]1C(=O)[C@]2(C)[C@@H](OC(=O)CCCC(=O)O)C[C@H]3OC[C@@]3(OC(C)=O)[C@H]2[C@H](OC(=O)c2ccccc2)[C@]2(O)C[C@H](OC(=O)[C@H](O)[C@@H](NC(=O)c3ccccc3)c3ccccc3)C(C)=C1C2(C)C	–	–	–	–	–
3.8	CC(=O)O[C@H]1C(=O)[C@]2(C)[C@@H](OC(=O)CCC(=O)O)C[C@H]3OC[C@@]3(OC(C)=O)[C@H]2[C@H](OC(=O)c2ccccc2)[C@]2(O)C[C@H](OC(=O)[C@H](O)[C@@H](NC(=O)c3ccccc3)c3ccccc3)C(C)=C1C2(C)C	–	–	–	–	–
0.7	CC(=O)O[C@H]1C(=O)[C@]2(C)[C@@H](OC(=O)CCCC(=O)N(C)C)C[C@H]3OC[C@@]3(OC(C)=O)[C@H]2[C@H](OC(=O)c2ccccc2)[C@]2(O)C[C@H](OC(=O)[C@H](O)[C@@H](NC(=O)c3ccccc3)c3ccccc3)C(C)=C1C2(C)C	Active	–	–	–	–
1.6	CC(=O)O[C@@]12CO[C@@H]1C[C@H](O)[C@@]1(C)C(=O)[C@H](OC(=O)CCC(=O)N(C)C)C3=C(C)[C@@H](OC(=O)[C@H](O)[C@@H](NC(=O)c4ccccc4)c4ccccc4)C[C@@](O)([C@@H](OC(=O)c4ccccc4)[C@H]21)C3(C)C	Active	2.1	2.7	–	–
–	CC(=O)O[C@H]1C(=O)[C@@]2(C)[C@H]([C@H](OC(=O)c3ccccc3)[C@]3(O)C[C@H](OC(=O)[C@H](O)[C@@H](NC(=O)c4ccccc4)c4ccccc4)C(C)=C1C3(C)C)[C@]1(OC(C)=O)CO[C@@H]1C[C@@H]2O [PACLITAXEL]	–	–	–	3.2	1500
0.8	CNC(=O)CCC(=O)O[C@H]1C[C@H]2OC[C@@]2(OC(C)=O)[C@H]2[C@H](OC(=O)c3ccccc3)[C@]3(O)C[C@H](OC(=O)[C@H](O)[C@@H](NC(=O)c4ccccc4)c4ccccc4)C(C)=C([C@@H](OC(C)=O)C(=O)[C@]12C)C3(C)C	Active	–	–	–	–
1.2	COC(=O)CCC(=O)O[C@H]1C[C@H]2OC[C@@]2(OC(C)=O)[C@H]2[C@H](OC(=O)c3ccccc3)[C@]3(O)C[C@H](OC(=O)[C@H](O)[C@@H](NC(=O)c4ccccc4)c4ccccc4)C(C)=C([C@@H](OC(C)=O)C(=O)[C@]12C)C3(C)C	Active	–	–	–	–
1.8	CNC(=O)CCCC(=O)O[C@H]1C(=O)[C@@]2(C)[C@H]([C@H](OC(=O)c3ccccc3)[C@]3(O)C[C@H](OC(=O)[C@H](O)[C@@H](NC(=O)c4ccccc4)c4ccccc4)C(C)=C1C3(C)C)[C@]1(OC(C)=O)CO[C@@H]1C[C@@H]2O	Active	–	–	–	–
0.8	CNC(=O)CCCC(=O)O[C@H]1C[C@H]2OC[C@@]2(OC(C)=O)[C@H]2[C@H](OC(=O)c3ccccc3)[C@]3(O)C[C@H](OC(=O)[C@H](O)[C@@H](NC(=O)c4ccccc4)c4ccccc4)C(C)=C([C@@H](OC(C)=O)C(=O)[C@]12C)C3(C)C	Active	3.7	3.2	–	–
2.2	CC(=O)O[C@@]12CO[C@@H]1C[C@H](O)[C@@]1(C)C(=O)[C@H](OC(=O)CCCC(=O)N(C)C)C3=C(C)[C@@H](OC(=O)[C@H](O)[C@@H](NC(=O)c4ccccc4)c4ccccc4)C[C@@](O)([C@@H](OC(=O)c4ccccc4)[C@H]21)C3(C)C	Active	–	–	–	–
0.4	CC(=O)O[C@@]12CO[C@@H]1C[C@H](O)[C@@]1(C)C(=O)[C@H](OC(=O)CCC(N)=O)C3=C(C)[C@@H](OC(=O)[C@H](O)[C@@H](NC(=O)c4ccccc4)c4ccccc4)C[C@@](O)([C@@H](OC(=O)c4ccccc4)[C@H]21)C3(C)C	Active	10	6	–	–
0.8	CNC(=O)CCC(=O)O[C@H]1C(=O)[C@@]2(C)[C@H]([C@H](OC(=O)c3ccccc3)[C@]3(O)C[C@H](OC(=O)[C@H](O)[C@@H](NC(=O)c4ccccc4)c4ccccc4)C(C)=C1C3(C)C)[C@]1(OC(C)=O)CO[C@@H]1C[C@@H]2O	Active	7.9	6	–	–
1.7	CC(=O)O[C@@]12CO[C@@H]1C[C@H](O)[C@@]1(C)C(=O)[C@H](OC(=O)CCC(=O)O)C3=C(C)[C@@H](OC(=O)[C@H](O)[C@@H](NC(=O)c4ccccc4)c4ccccc4)C[C@@](O)([C@@H](OC(=O)c4ccccc4)[C@H]21)C3(C)C	–	–	–	–	–
1.1	CC(=O)O[C@H]1C(=O)[C@]2(C)[C@@H](OC(=O)CCC(=O)N(C)C)C[C@H]3OC[C@@]3(OC(C)=O)[C@H]2[C@H](OC(=O)c2ccccc2)[C@]2(O)C[C@H](OC(=O)[C@H](O)[C@@H](NC(=O)c3ccccc3)c3ccccc3)C(C)=C1C2(C)C	Active	–	–	–	–

SMILES	Ratio ED50 [1]	Activity (Endothelial cell)	Ratio ED50 (MCF7 [2])	Ratio ED50 (NCI/ADR-RES [3])	EC50 (MCF7 [4]) [nM]	EC50 (NCI/ADR-RES [5]) [nM]
CC(=O)O[C@@]12CO[C@@H]1C[C@H](O)[C@@]1(C)C(=O)[C@H](OC(=O)CCCC(=O)O)C3=C(C)[C@@H](OC(=O)[C@H](O)[C@@H](NC(=O)c4ccccc4)c4ccccc4)C[C@@](O)([C@@H](OC(=O)c4ccccc4)[C@H]21)C3(C)C	1.8	–	–	–	–	–

— ChEMBL document CHEMBL1152132 (2008)
